From DBAASP
≈ marks a conversion by molar mass, not a printed value.

What was measured:
Assay in all cases: ≥ marks a high value that may be exact or a test limit, other limits are often not marked, values filed in µg/mL are converted to µM
[1] = tested on: Escherichia coli K12 MG1655
[2] = tested on: Staphylococcus aureus 68 HER 1049
[3] = tested on: Porphyromonas gingivalis ATCC 33277
[4] = tested on: Porphyromonas gingivalis ATCC 53978
Bacillus megaterium = tested on: Bacillus megaterium
[5] = tested on: Candida albicans ATCC 2002
[6] = tested on: Escherichia coli ATCC 25922
Klebsiella pneumoniae = tested on: Klebsiella pneumoniae
[7] = tested on: Pseudomonas aeruginosa CMCCB 10104
Shigella dysenteriae = tested on: Shigella dysenteriae
[8] = tested on: Staphylococcus aureus ATCC 2592
[9] = tested on: Klebsiella pneumoniae DM4299
[10] = tested on: Pseudomonas aeruginosa DM23155
Bacillus subtilis A47 = tested on: Bacillus subtilis A47
Escherichia coli 44102 = tested on: Escherichia coli 44102
[11] = tested on: Pseudomonas aeruginosa A62
[12] = tested on: Staphylococcus aureus 22401
[13] = tested on: Acinetobacter johnsonii NCDC 0072
[14] = tested on: Bacillus cereus NCDC 0240
[15] = tested on: Escherichia coli MTCC 0723
[16] = tested on: Listeria monocytogenes ATCC 19111
[17] = tested on: Pseudomonas aeruginosa ATCC 27853
[18] = tested on: Pseudomonas aeruginosa NCDC 0105
[19] = tested on: Salmonella enterica subsp. enterica serovar Typhimurium ATCC 14028
[20] = tested on: Staphylococcus aureus ATCC 29213
[21] = tested on: Staphylococcus aureus NCDC 0111
Candida glabrata 090902 = tested on: Candida glabrata 090902
[22] = tested on: Enterobacter cloacae CGMCC 1.57
[23] = tested on: Enterococcus faecalis 981
[24] = tested on: Enterococcus faecium 091299
[25] = tested on: Klebsiella pneumoniae 08040724
[26] = tested on: Nocardia asteroides 201118
[27] = tested on: Pseudomonas aeruginosa CGMCC 1.50
[28] = tested on: Psychrobacter faecalis X29

SMILES: CC[C@H](C)[C@H](NC(=O)[C@H](CCCN=C(N)N)NC(=O)[C@H](CCCN=C(N)N)NC(=O)[C@H](CC(C)C)NC(=O)[C@H](CCCCN)NC(=O)[C@H](CCCCN)NC(=O)[C@H](Cc1c[nH]c2ccccc12)NC(=O)[C@H](CCCN=C(N)N)NC(=O)[C@H](CCCCN)NC(=O)[C@H](Cc1c[nH]c2ccccc12)NC(=O)[C@@H](N)Cc1c[nH]c2ccccc12)C(=O)N[C@@H](Cc1ccccc1)C(=O)N[C@@H](CC(C)C)C(=O)N[C@@H](CCSC)C(=O)N[C@@H](CC(C)C)C(=O)O [WWKRWKKLRRIFLML]
- MIC [1]: 1.85 µM (≈ 4 µg/mL)
- MIC [2]: 1.85 µM (≈ 4 µg/mL)

SMILES: CC[C@H](C)[C@H](NC(=O)CNC(=O)[C@H](CCC(=O)O)NC(=O)CNC(=O)[C@H](C)NC(=O)CNC(=O)[C@H](Cc1cnc[nH]1)NC(=O)[C@@H]1CCCN1C(=O)[C@@H](N)CCCN=C(N)N)C(=O)N[C@@H](CC(=O)O)C(=O)N[C@@H](CCCN=C(N)N)C(=O)N[C@H](C(=O)N1CCC[C@H]1C(=O)N[C@@H](C)C(=O)NCC(=O)N1CCC[C@H]1C(=O)N[C@@H](CO)C(=O)N1CCC[C@H]1C(=O)N[C@@H](CO)C(=O)N[C@@H](CCC(=O)O)C(=O)N[C@H](C(=O)NCC(=O)N[C@@H](CC(C)C)C(=O)N[C@@H](C)C(=O)N[C@H](C(=O)N1CCC[C@H]1C(=O)N[C@@H](CO)C(=O)NCC(=O)N[C@@H](CCCCN)C(=O)O)[C@@H](C)CC)C(C)C)C(C)C [RPHGAGEGIDRVPAGPSPSEVGLAIPSGK]
- MIC [3]: 1.7 µM (≈ 4.78 µg/mL)
- MIC [4]: 1.7 µM (≈ 4.78 µg/mL)

SMILES: CC[C@H](C)[C@H](NC(=O)CN)C(=O)NCC(=O)N[C@H](C(=O)N[C@@H](CCCCN)C(=O)N[C@H](C(=O)N[C@@H](CC(C)C)C(=O)NCC(=O)NCC(=O)N[C@H](C(=O)N[C@@H](CCCCN)C(=O)N[C@H](C(=O)N[C@@H](C)C(=O)N[C@@H](CC(C)C)C(=O)N[C@@H](CCCCN)C(=O)NCC(=O)N[C@@H](C)C(=O)N[C@@H](CC(C)C)C(=O)N[C@@H](CCCCN)C(=O)N[C@@H](CCC(=O)O)C(=O)N[C@@H](CC(C)C)C(=O)N[C@@H](C)C(=O)N[C@@H](CO)C(=O)N[C@H](C(=O)N[C@@H](Cc1ccc(O)cc1)C(=O)N[C@H](C(=O)N[C@@H](CC(N)=O)C(N)=O)C(C)C)[C@@H](C)O)[C@@H](C)O)C(C)C)[C@@H](C)CC)[C@@H](C)O [GIGTKILGGVKTALKGALKELASTYVN]
- MIC (Bacillus megaterium): 7.21 µM (≈ 19.5 µg/mL)
- MIC [5]: 1.11 µM (≈ 3 µg/mL)
- MIC [6]: 7.21 µM (≈ 19.5 µg/mL)
- MIC (Klebsiella pneumoniae): 3.33 µM (≈ 9 µg/mL)
- MIC [7]: 7.21 µM (≈ 19.5 µg/mL)
- MIC (Shigella dysenteriae): 0.999 µM (≈ 2.7 µg/mL)
- MIC [8]: 7.21 µM (≈ 19.5 µg/mL)

SMILES: CC(=O)N[C@@H](CCCN=C(N)N)C(=O)NCC(=O)N[C@@H](CCCN=C(N)N)C(=O)N[C@@H](CCCCN)C(=O)NCC(=O)NCC(=O)N[C@@H](CCCN=C(N)N)C(=O)N[C@@H](CCCN=C(N)N)C(=O)N[C@@H](CCCCN)C(=O)N[C@@H](CCCCN)C(=O)O [RGRKGGRRKK]
- MIC [6]: 1.5 µM (≈ 1.86 µg/mL)
- MIC [9]: 3 µM (≈ 3.72 µg/mL)
- MIC [10]: 6 µM (≈ 7.44 µg/mL)

SMILES: CC[C@H](C)[C@H](N)C(=O)N[C@@H](CC(C)C)C(=O)N1CCC[C@H]1C(=O)N[C@H](C(=O)N[C@H](C(=O)NCC(=O)N[C@@H](CCCCN)C(=O)N[C@H](C(=O)N[C@@H](CC(C)C)C(=O)N[C@@H](CO)C(=O)N[C@H](C(=O)N[C@H](C(=O)N[C@@H](Cc1ccccc1)C(=O)NCC(=O)N[C@@H](CCCCN)C(=O)O)[C@@H](C)CC)[C@@H](C)O)[C@@H](C)CC)[C@@H](C)CC)[C@@H](C)CC [ILPIIGKILSTIFGK]
- MIC (Bacillus subtilis A47): 25 µM (≈ 40.3 µg/mL)
- MIC (Escherichia coli 44102): ≥ 50 µM
- MIC [11]: 12.5 µM (≈ 20.2 µg/mL)
- MIC [12]: 6.25 µM (≈ 10.1 µg/mL)

SMILES: CC[C@H](C)[C@H](NC(=O)[C@H](CO)NC(=O)[C@H](Cc1c[nH]c2ccccc12)NC(=O)[C@@H]1CCCN1C(=O)[C@@H](NC(=O)[C@H](C)N)[C@@H](C)CC)C(=O)N[C@@H](Cc1c[nH]c2ccccc12)C(=O)N[C@@H](Cc1c[nH]c2ccccc12)C(=O)N[C@@H](CCCN=C(N)N)C(=O)N[C@@H](CC(C)C)C(=O)N[C@@H](CC(C)C)C(=O)N[C@@H](Cc1ccccc1)C(=O)N[C@@H](CCCCN)C(=O)NCC(=O)O [AIPWSIWWRLLFKG]
- MIC [13]: ≥ 200 µM
- MIC [14]: ≥ 100 µM
- MIC [15]: ≥ 200 µM
- MIC [16]: 3 µM (≈ 5.32 µg/mL)
- MIC [17]: 100 µM (≈ 177 µg/mL)
- MIC [18]: ≥ 50 µM
- MIC [19]: 0.2 µM (≈ 0.355 µg/mL)
- MIC [20]: 6 µM (≈ 10.6 µg/mL)
- MIC [21]: 6 µM (≈ 10.6 µg/mL)

SMILES: CC[C@H](C)[C@H](NC(=O)CN)C(=O)N[C@@H](CC(C)C)C(=O)N[C@@H](CC(=O)O)C(=O)N[C@H](C(=O)N[C@@H](CC(C)C)C(=O)N[C@@H](CCCCN)C(=O)N[C@@H](CCC(N)=O)C(=O)N[C@@H](CC(C)C)C(=O)NCC(=O)N[C@@H](CCCCN)C(=O)N[C@@H](C)C(=O)N[C@@H](C)C(=O)N[C@@H](C)C(=O)N[C@@H](CCC(N)=O)C(=O)N[C@@H](CO)C(=O)N[C@@H](CC(C)C)C(=O)N[C@@H](CC(C)C)C(=O)N[C@@H](CO)C(=O)N[C@@H](CCCCN)C(=O)N[C@@H](C)C(=O)N[C@@H](C)C(=O)N[C@H]1CSSC[C@@H](C(=O)O)NC(=O)[C@H]([C@@H](C)O)NC(=O)[C@H](CCCCN)NC(=O)[C@H](C)NC(=O)[C@H](CC(C)C)NC(=O)[C@H](CCCCN)NC1=O)[C@@H](C)O [GILDTLKQLGKAAAQSLLSKAACKLAKTC]
- MIC (Candida glabrata 090902): ≥ 50 µM
- MIC [22]: ≥ 50 µM
- MIC [23]: ≥ 50 µM
- MIC [24]: 6.3 µM (≈ 18.5 µg/mL)
- MIC [6]: 50 µM (≈ 147 µg/mL)
- MIC [25]: ≥ 100 µM
- MIC [26]: 6.3 µM (≈ 18.5 µg/mL)
- MIC [27]: ≥ 50 µM
- MIC [28]: 3.1 µM (≈ 9.13 µg/mL)
